“Also recorded” adds a separate entry of the source. Where two headings read alike, the source gives them in different places.
Tests used:
BSC-1 cells = experiment: Cytotoxicity (CC50)
vaccinia virus = experiment: microbe, parasite or virus in culture; type: cell-based, Vaccinia virus (WR strain)
recombinant VACV (vL1Ri) = type: cell-based, vaccinia virus in BSC-1 cells
Cytotoxicity (CC50) = conditions: African green monkey, BSC-1 cells
mD4-VV hybrid virus = experiment: microbe, parasite or virus in culture; type: cell-based; conditions: read-out: IC50 mD4-VV hybrid virus
[1] = Table 5, mean ± SEM of triplicates

Molecule	CC50 (BSC-1 cells; [1]) [µM]	SI (selectivity index = CC50/IC50) (vaccinia virus)	IC50 (vaccinia virus; Orthopoxvirus vaccinia) [µM]	IC50 (mD4-VV hybrid virus) [µM]	other results
Cc1ccc2c(Sc3cc(Cl)cc(Cl)c3)c(CCC(=O)O)[nH]c2c1 [Compound 24d, 3-(3-((3,5-Dichlorophenyl)thio)-6-methyl-1H-indol-2-yl)propanoic acid]	36 ± 14	152	0.244	–	fold decrease in potency / loss of activity compared to 24a (vaccinia virus): ~5 fold
6-Methyl-3-(phenylthio)-1H-indole-2-carboxylate [Compound 29]	–	–	–	–	CC50 (BSC-1 cells; read-out: CC50 (cytotoxicity), BSC-1 cells, NA = not active (assays requiring >200 μM)): 26 µM; IC50 (vaccinia virus; read-out: IC50 (antiviral)): 10 µM
Nc1ccn(C[C@@H](CO)OCP(=O)(O)O)c(=O)n1 [CDV, cidofovir]	–	–	–	–	EGFP expression (late reporter gene) (recombinant VACV (vL1Ri)): equally effective at a higher dose; also recorded: clearly showed suppression of EGFP when pretreated; EGFP expression, compound added after virus adsorption (recombinant VACV (vL1Ri); 8 h): comparable EGFP expression and CPE to DMSO vehicle; also recorded: EGFP expression comparable to vehicle-treatment
CCCCCCNC(=O)CCc1[nH]c2cc(C)ccc2c1Sc1cc(Cl)cc(Cl)c1 [Compound 24e, 3-(3-((3,5-Dichlorophenyl)thio)-6-methyl-1H-indol-2-yl)-N-hexylpropanamide]	27 ± 4	–	–	–	–
Cc1ccc2c(Sc3cc(Cl)cc(Cl)c3)c(CCCC(N)=O)[nH]c2c1 [Compound 24c, 4-(3-((3,5-Dichlorophenyl)thio)-6-methyl-1H-indol-2-yl)butanamide]	–	115	0.208	0.199	CC50 (Cytotoxicity (CC50)): 243 ± 2 µM; fold decrease in potency / loss of activity compared to 24a (vaccinia virus): ~5 fold
Cc1ccc2c(Sc3cc(Cl)cc(Cl)c3)c(CCC(N)=O)[nH]c2c1 [Compound 24a, 3-(3-((3,5-Dichlorophenyl)thio)-6-methyl-1H-indol-2-yl)propanamide]	16 ± 5	374	0.042	0.03	cytotoxicity within experimental time frame (BSC-1 cells; cells treated 9 h, FIG. 7A): minimal cytotoxicity
Cc1ccc2c(Sc3ccc(Br)cc3)c(C(=O)O)[nH]c2c1 [Compound 18c, 3-((4-Bromophenyl)thio)-6-methyl-1H-indole-2-carboxylic acid]	–	–	–	–	CC50 (Cytotoxicity (CC50)): 133 µM; IC50 (antiviral) (vaccinia virus): loss of activity
Cc1ccc2c(Sc3cc(Cl)cc(Cl)c3)c(CC(N)=O)[nH]c2c1 [Compound 24b, 2-(3-((3,5-Dichlorophenyl)thio)-6-methyl-1H-indol-2-yl)acetamide]	26 ± 3	570	0.046	0.097	–

Reference: patent US9233921B2, “Potent poxvirus inhibitor” (priority 2013, dated 2016)
